What was measured:
CXCL8 = CXCL8 (Homo sapiens, UniProt P10145); assay: Selectivity, neutraligand protocol, EGFP-CXCR2+ HEK cells; format: cell-based; conditions: 10 μM compound, 5 nM CXCL8, EGFP-CXCR2+ HEK cells
Experimental: Figure 6 (a) Selectivity of CCL17 and CCL22 neutraligands towards 10 chemokines according to the “neutraligand protocol”. […] Each column represents the mean (block) ± SD (bars) of n = 3 experiments performed in triplicate. *p < 0.05; **p < 0.01; ***p < 0.005 as compared to chemokine + DMSO. (b) Chemokine neutraligands inhibited CCR4 endocytosis induced by CCL22 or CCL17. EGFP-CCR4^+ HEK cells were incubated for 30 min with DMSO or chemokine (100 nM CCL22 or CCL17) in the presence or absence of test compounds. […] Cell surface EGFP-tagged CCR4 receptors were measured by EGFP antibody labeling and flow cytometry analysis. CCR4 internalization was expressed as a percentage of total receptor surface expression calculated using control cells incubated with DMSO (100%). […] The number of migrating cells in the presence of chemokine and compounds were expressed as the corresponding percentages. Results were analyzed by fitting the experimental curves (% of migrating cells vs log compound concentration) using the Kaleidagraph software program, and the corresponding IC50 values were calculated. […]
Dye loaded cells were placed in the FlexStation 3 (Molecular Devices). Calcium mobilization was measured at 401 and 475 nm emission fluorescence after excitation at 355 nm. […] Raw fluorescence data (at 401 and 475 nm) were exported and the ratio 401/475 was calculated. […]

COX1 = molecular target: T1, COX1 (Homo sapiens, UniProt P23219); assay: COX1 mediated PGE2 release in primary monocytes; format: cell-based; conditions: monocytes + arachidonic acid
T1 construct: endogenous in cells; host or cells: primary human monocytes
T1 sequence (P23219 24-599): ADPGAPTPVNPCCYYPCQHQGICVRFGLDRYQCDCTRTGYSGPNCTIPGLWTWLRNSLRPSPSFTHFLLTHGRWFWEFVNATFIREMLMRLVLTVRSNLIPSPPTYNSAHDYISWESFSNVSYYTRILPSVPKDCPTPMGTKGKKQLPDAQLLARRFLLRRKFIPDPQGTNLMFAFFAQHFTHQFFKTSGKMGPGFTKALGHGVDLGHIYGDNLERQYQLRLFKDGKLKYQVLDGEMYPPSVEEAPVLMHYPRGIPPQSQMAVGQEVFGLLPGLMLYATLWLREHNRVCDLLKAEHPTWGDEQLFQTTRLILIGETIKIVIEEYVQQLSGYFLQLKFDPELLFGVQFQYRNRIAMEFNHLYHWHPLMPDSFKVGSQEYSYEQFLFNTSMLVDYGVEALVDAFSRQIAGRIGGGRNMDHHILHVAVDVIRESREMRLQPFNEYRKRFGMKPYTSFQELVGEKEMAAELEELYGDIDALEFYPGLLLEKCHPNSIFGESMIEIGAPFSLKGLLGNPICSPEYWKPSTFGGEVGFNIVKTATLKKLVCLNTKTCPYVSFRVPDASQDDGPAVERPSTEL
Experimental: the wound closure was determined as the difference between wound width at times 0 and 72h. This experiment was repeated three times.
Human primary monocytes were isolated from buffy coats of healthy human blood donors and seeded in 24-well plates (500,000 cells/ml in 1ml) for COX-1/2 activity or 96-well plates for cell viability experiments.
Cells were seeded in 96 well plates (5,000 cells/well in 200µl) for cytotoxicity testing (Alamar […]
doses). After 24h, cytotoxicity was evaluated in the wells using the Alamar Blue method. NaF (250µg/ml) was used as a control in this experiment.
Cyclooxygenase (COX) activity
COX1 mediated prostaglandin E2 (PGE2) release. Monocytes were treated with arachidonic […]
were then collected for the determination of PGE2 by enzyme immunoassay (EIA) […]
COX2 mediated prostaglandin E2 (PGE2) release. Monocytes were incubated with LPS (10U/ml) for 24h to induce COX2 protein synthesis. After renewal of medium (serum free), […]
before AA treatment. The activity of COX2 was determined by measuring PGE2 (Cayman) in the supernatants by EIA. Aspirin (10µM) and diclofenac (10µM) were used as control […]
NaF (250µg/ml) was used as a control (relative light unit, r.l.u). (c) Monocytes were treated […]
GPN136 (grey bars). The activity of COX1 was determined by measuring prostaglandin E2 (PGE2). […]
of COX2 was determined by measuring PGE2. […]

Chain of CXCL8 (P10145 28-99 limits assumed): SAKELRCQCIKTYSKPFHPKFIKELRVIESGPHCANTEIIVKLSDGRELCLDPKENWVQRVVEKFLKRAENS

Row | SMILES | effect on calcium responses induced by CXCL8 (CXCL8) | doses at which COX1 activity is inhibited (COX1) [µM] | effect on COX1 activity (PGE2) (COX1; 100 µM)
1 | O=C(OCC(O)CO)c1ccccc1O (stereo not shown) [GPN136, 2,3-dihydroxypropyl 2-hydroxybenzoate] | no effect | > 100 | 
2 | CC(C)=CCn1cnc2c1c(=O)n(C)c(=O)n2C [GPN279, 1,3-dimethyl-7-(3-methylbut-2-enyl)-1H-purine-2,6(3H, 7H)-dione] | no effect |  | no effect

— PMC4595804, “A strategy to discover decoy chemokine ligands with an anti-inflammatory activity” (Scientific Reports, 2015)
